From US20250289804A1, “SUBSTITUTED INDOLE COMPOUNDS AND METHODS OF USE THEREOF” (NOVARTIS PHARMA AG, priority 2021, published 2025)

How the values were obtained:
human C3bBb = human C3bBb (Homo sapiens (Human), UniProt P00751); assay: Human C3bBb enzyme assay (C3a generation from C3, ELISA); assay type: biochemical; settings: starred values: assay conducted with 1 nM C3b:Bb enzyme; read-out: Human C3b:Bb IC50 Avg
Outline: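 C3bBb was preformed from human C3b, CFB and CFD at 1 μM each (30 min, RT) in PBS pH 7.4 with 100 μM NiCl2 and 0.05% CHAPS. Then 3 nM complex with 1 μM human C3 was incubated with compound for 1 h at RT. C3a was quantified by ELISA against a standard curve, and IC50 came from a 10-point 4-parameter fit.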

[1] = system: MAC formation in normal human serum; assay: Human serum MAC formation assay (zymosan-coated plates, 50% normal human serum); settings: 50% normal human serum with EGTA, 37° C. 30 minutes
Outline: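 Compounds preincubated 15 min at RT with 50% normal human serum in gelatin buffer plus 20 mM EGTA, then complement activated 30 min at 37 °C on zymosan-coated plates. C9 neoepitope ELISA, fluorogenic readout. Percent inhibition vs EDTA-serum baseline and EGTA-serum maximum; IC50 from 4-parameter fit of 10-point curves.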

C3G patients = settings: after 12 weeks of treatment; cited from earlier work

Chain of human C3bBb (P00751 260-764): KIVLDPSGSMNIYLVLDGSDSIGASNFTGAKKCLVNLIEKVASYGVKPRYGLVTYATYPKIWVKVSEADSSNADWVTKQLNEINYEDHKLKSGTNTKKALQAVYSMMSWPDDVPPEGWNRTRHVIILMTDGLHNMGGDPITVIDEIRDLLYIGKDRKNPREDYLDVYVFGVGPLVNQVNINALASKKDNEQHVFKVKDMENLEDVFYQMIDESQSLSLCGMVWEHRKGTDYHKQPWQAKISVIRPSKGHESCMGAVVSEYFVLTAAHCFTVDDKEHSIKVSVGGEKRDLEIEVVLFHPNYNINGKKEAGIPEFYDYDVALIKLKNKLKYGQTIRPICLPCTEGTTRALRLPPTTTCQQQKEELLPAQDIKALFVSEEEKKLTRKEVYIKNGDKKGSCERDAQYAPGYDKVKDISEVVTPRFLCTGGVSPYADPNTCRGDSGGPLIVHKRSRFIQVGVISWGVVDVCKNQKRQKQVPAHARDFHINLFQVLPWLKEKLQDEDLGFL
Chain of human C3bBb (P01024 23-667 partner): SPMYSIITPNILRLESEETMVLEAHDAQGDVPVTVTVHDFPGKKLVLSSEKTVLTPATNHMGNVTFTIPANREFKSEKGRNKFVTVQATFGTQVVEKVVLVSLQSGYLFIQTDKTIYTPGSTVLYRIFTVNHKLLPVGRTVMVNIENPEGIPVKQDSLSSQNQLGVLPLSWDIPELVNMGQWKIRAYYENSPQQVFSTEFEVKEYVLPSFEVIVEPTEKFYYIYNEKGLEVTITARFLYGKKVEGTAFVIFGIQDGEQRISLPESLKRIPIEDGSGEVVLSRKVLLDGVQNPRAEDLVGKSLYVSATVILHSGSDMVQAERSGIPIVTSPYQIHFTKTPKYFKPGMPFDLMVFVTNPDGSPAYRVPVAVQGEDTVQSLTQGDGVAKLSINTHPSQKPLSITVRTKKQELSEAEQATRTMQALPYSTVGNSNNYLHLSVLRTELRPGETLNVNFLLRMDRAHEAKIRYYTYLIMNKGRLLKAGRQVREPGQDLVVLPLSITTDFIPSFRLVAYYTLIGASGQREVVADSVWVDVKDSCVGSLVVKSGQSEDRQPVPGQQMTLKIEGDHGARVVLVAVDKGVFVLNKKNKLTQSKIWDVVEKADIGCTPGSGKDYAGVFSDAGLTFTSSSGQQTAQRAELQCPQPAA
Chain of human C3bBb (P01024 749-1663 partner): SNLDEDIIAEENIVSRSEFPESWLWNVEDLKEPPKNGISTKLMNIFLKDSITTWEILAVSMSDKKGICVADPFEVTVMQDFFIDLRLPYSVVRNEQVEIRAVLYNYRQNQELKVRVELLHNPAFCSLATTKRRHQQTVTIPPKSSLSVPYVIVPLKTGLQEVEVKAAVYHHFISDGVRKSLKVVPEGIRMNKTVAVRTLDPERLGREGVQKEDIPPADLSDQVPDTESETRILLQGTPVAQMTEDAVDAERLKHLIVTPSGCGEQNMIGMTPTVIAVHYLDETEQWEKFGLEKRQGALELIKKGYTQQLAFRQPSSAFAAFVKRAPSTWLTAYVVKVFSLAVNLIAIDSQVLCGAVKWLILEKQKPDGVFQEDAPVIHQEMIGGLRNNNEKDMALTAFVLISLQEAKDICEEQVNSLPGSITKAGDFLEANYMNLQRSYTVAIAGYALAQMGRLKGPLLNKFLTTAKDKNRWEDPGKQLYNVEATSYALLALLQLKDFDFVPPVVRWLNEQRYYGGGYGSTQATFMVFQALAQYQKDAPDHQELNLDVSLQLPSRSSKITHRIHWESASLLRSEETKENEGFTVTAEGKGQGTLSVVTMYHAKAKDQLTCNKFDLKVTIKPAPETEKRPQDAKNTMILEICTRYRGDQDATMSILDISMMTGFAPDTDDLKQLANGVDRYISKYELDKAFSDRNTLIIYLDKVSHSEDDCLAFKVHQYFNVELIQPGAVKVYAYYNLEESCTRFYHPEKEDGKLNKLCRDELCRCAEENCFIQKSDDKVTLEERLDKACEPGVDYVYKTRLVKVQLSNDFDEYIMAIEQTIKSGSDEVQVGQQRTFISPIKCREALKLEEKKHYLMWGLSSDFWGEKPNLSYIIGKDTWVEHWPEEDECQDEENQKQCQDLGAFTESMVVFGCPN

SMILES	IC50 (human C3bBb)	IC50 [1]	efficacy (proteinuria) (C3G patients)
Cc1cc(C2CC2)c(CN2CC[C@H](N3CC4(CC4)C3)C[C@H]2c2ccc(C(=O)O)cc2)c2cc[nH]c12 [Example 78, 4-((2S,4S)-1-((5-cyclopropyl-7-methyl-1H-indol-4-yl)methyl)-4-(5-azaspiro[2.3]hexan-5-yl)piperidin-2-yl)benzoic acid]	25 to 50 nM	100 to 200 nM	–
COc1cc(C)c2[nH]ccc2c1CN1CC[C@H](N2CC(S(C)(=O)=O)C2)C[C@H]1c1ccc(C(=O)O)cc1 [Example 79, 4-((2S,4S)-1-((5-methoxy-7-methyl-1H-indol-4-yl)methyl)-4-(3-(methylsulfonyl)azetidin-1-yl)piperidin-2-yl)benzoic acid]	50 to 100 nM	100 to 200 nM	–
COc1cc(C)c2[nH]ccc2c1CN1CC[C@H](N2CC(F)C2)C[C@H]1c1ccc(C(=O)O)cc1 [Example 80, 4-((2S,4S)-4-(3-fluoroazetidin-1-yl)-1-((5-methoxy-7-methyl-1H-indol-4-yl)methyl)piperidin-2-yl)benzoic acid]	25 to 50 nM	200 to 300 nM	–
COc1cc(C)c2[nH]ccc2c1CN1CC[C@H](OC2COC2)C[C@H]1c1ccc(C(=O)O)cc1 [Example 82, 4-((2S,4S)-1-((5-methoxy-7-methyl-1H-indol-4-yl)methyl)-4-(oxetan-3-yloxy)piperidin-2-yl)benzoic acid]	10 to 25 nM	200 to 300 nM	–
COc1cc(C)c2[nH]ccc2c1CN1CC[C@H](OC2CCC2)C[C@H]1c1ccc(C(=O)O)cc1 [Example 84, 4-((2S,4S)-4-cyclobutoxy-1-((5-methoxy-7-methyl-1H-indol-4-yl)methyl)piperidin-2-yl)benzoic acid]	25 to 50 nM	200 to 300 nM	–
COc1cc(C)c2[nH]ccc2c1CN1CC[C@H](OCC(F)(F)F)C[C@H]1c1ccc(C(=O)O)cc1 [Example 85, 4-((2S,4S)-1-((5-methoxy-7-methyl-1H-indol-4-yl)methyl)-4-(2,2,2-trifluoroethoxy)piperidin-2-yl)benzoic acid]	< 10 nM	100 to 200 nM	–
CCO[C@H]1CCN(Cc2c(OC)cc(C)c3[nH]ccc23)[C@H](c2ccc(C(=O)O)cc2)C1 [iptacopan]	–	–	reduced proteinuria

Continued, in another order:

IC50 (human C3bBb)	SMILES	IC50 [1]	efficacy (proteinuria) (C3G patients)
< 10 nM	Cc1cc(C2CC2)c(CN2CC[C@H](N3CC(C(F)(F)F)C3)C[C@H]2c2ccc(C(=O)O)cc2)c2cc[nH]c12 [Example 76, 4-((2S,4S)-1-((5-cyclopropyl-7-methyl-1H-indol-4-yl)methyl)-4-(3-(trifluoromethyl)azetidin-1-yl)piperidin-2-yl)benzoic acid]	100 to 200 nM	–
< 10 nM	Cc1cc(C2CC2)c(CN2CC[C@H](N3CC(C#N)C3)C[C@H]2c2ccc(C(=O)O)cc2)c2cc[nH]c12 [Example 77, 4-((2S,4S)-4-(3-cyanoazetidin-1-yl)-1-((5-cyclopropyl-7-methyl-1H-indol-4-yl)methyl)piperidin-2-yl)benzoic acid]	< 100 nM	–
< 10 nM	COc1cc(C)c2[nH]ccc2c1CN1CC[C@H](N2CC(C(F)(F)F)C2)C[C@H]1c1ccc(C(=O)O)cc1 [Example 81, 4-((2S,4S)-1-((5-methoxy-7-methyl-1H-indol-4-yl)methyl)-4-(3-(trifluoromethyl)azetidin-1-yl)piperidin-2-yl)benzoic acid]	< 100 nM	–
< 10 nM	COc1cc(C)c2[nH]ccc2c1CN1CC[C@H](OCC(F)F)C[C@H]1c1ccc(C(=O)O)cc1 [Example 83, 4-((2S,4S)-4-(2,2-difluoroethoxy)-1-((5-methoxy-7-methyl-1H-indol-4-yl)methyl)piperidin-2-yl)benzoic acid]	100 to 200 nM	–
